From patent publication US6511976B1, “Halogen substituted tetracyclic tetrahydrofuran derivatives” (Jannsen Pharmaceutica, N.V., priority 1997, dated 2003)

Assays:
[1] = dose of 300 mg/kg; cited from earlier work
[2] = tested on: mCPP induced effects; assay: mCPP Test on Rats (pre-test time T of 1 hour); format: in vivo; details: test compound at pre-test time T of 1 hour; 1 mg/kg mCPP intravenously 15 minutes prior to test; Open Field Test
Description: Rats were treated with the test compound at a varying dose at a pre-test time T of 1 hour and with 1 mg/kg mCPP (metachlorophenylpiperazine), injected intravenously, 15 minutes prior to the test. After pre-test time T elapsed, treated rats were submitted to the “Open Field Test on Rats” as described in Drug Dev. Res. 18, 119-144 (1989), but using an infra-red light source instead of a Kleverlux® (12V/20W) light source. […] Compound numbers 2 and 8 through 16 were active at a test dose of 2.5 mg/kg or lower. Other compounds were either not tested or were active at a higher dose.

[3] = tested on: dopamine (symptoms elicited with the dopamine agonist apomorphine); assay: ATN Test in Rats: apomorphine interaction; format: in vivo; details: observed at 30 minutes following subcutaneous administration
Description: (§1) The antipsychotic activity of the subject compounds is evidenced by the experimental data obtained in the combined apomorphine (APO), tryptamine (TRY) and norepinephrine (NOR) test in rats. Said combined apomorphine, tryptamine and norepinephrine test is described in Arch. Int. Pharmacodyn., 227, 238-253 (1977) and provides an empirical evaluation of the relative specificity with which drugs may effect particular neurotransmitter systems centrally (CNS) as well as peripherally. […] The favourable pharmacological property of the present compounds compared to the compounds specifically disclosed in WO 97/38991 lies in their ability to antagonize the central symptoms elicited by apomorphine and tryptamine.

[4] = tested on: serotonin (central symptoms elicited with the serotonin agonist tryptamine); assay: ATN Test in Rats: tryptamine interaction; format: in vivo; details: observed at 90 minutes following subcutaneous administration
Description: as §1

Row | SMILES | activity as antidepressant [1] | active dose (40% or more of the tested rats showed suppression of the mCPP induced effects, mCPP-antagonism) [2] [mg/kg] | ED50, apomorphine interaction: antagonism of agitation and stereotypy [3] [mg/kg] | ED50, tryptamine interaction: antagonism of backward locomotion [4] [mg/kg] | ED50, tryptamine interaction: antagonism of bilateral clonic convulsions [4]
1 | CNCC1CC2c3ccccc3Cc3ccccc3C2O1.O=C(O)C(=O)O (racemic) [(±)-3,3a,8,12b-tetrahydro-N-methyl-2H-dibenzo[3,4:6,7]-cyclohepta-[1,2-b]furan-2-methanamine oxalic acid] | inactive | – | – | – | –
2 | CN(C)CC1CC2c3ccccc3Cc3ccc(F)cc3C2O1.Cl (racemic) [Compound 2, (±)-(2α,3aβ,12bα)-11-fluoro-3,3a,8,12b-tetrahydro N,N-dimethyl-2H-dibenzo[3,4:6,7]cyclohepta[1,2-b]furan-2-methanamine hydrochloride] | – | ≤ 2.5 | – | – | –
3 | CN(C)CC1CC2c3ccccc3Cc3ccccc3C2O1 (single isomer, unassigned) [a] | – | – | >10 | 10 | ≧10 mg/kg
4 | CN(C)CC1CC2c3ccccc3Cc3ccccc3C2O1 (single isomer, unassigned) [b] | – | – | >10 | 1.3 | 1.3 mg/kg
5 | CN(C)CC1CC2c3ccccc3Cc3ccccc3C2O1 (single isomer, unassigned) [c] | – | – | >10 | 10 | 1.25 mg/kg
6 | CN(C)CC1CC2c3ccccc3Cc3ccccc3C2O1 (single isomer, unassigned) [d] | – | – | 2.7 | 0.2 | 0.15 mg/kg
7 | CN(C)CC1CC2c3ccccc3Cc3ccc(F)cc3C2O1.O=C(O)C(O)C(O)C(=O)O (stereo not drawn) [Compound 11, [B-(2α,3aβ,12bα)]-11-fluoro-3,3a,8,12b-tetrahydro-N,N-dimethyl-2H-dibenzo[3,4:6,7]cyclohepta[1,2-b]furan-2-methanamine (+)-[R-R*,R*)]-2,3-dihydroxybutanedioate (1:1)] | – | – | 2.0 | 0.5 | 0.4 mg/kg
